Where a name gives a salt, the structure may show the parent alone.
What was measured:
[1] = Metabolic stability in human liver microsomes; type: in vitro ADME; conditions: human liver microsomes
Description: Pooled liver microsomes are purchased from a reputable commercial supplier. Microsomes are stored at […] prior to use. Microsomes (final protein concentration 0.5 mg/mL), 0.1 M phosphate buffer pH 7.4 and test compound (final substrate concentration 1 μM; final DMSO concentration 0.25%) are preincubated at 37° C. prior to the addition of NADPH (final concentration 1 mM) to initiate the reaction. A minus cofactor control incubation is included for each compound tested where 0.1 M phosphate buffer pH 7.4 is added instead of NADPH (minus NADPH). Two control compounds are included with each species. All incubations are performed singularly for each test compound. Each compound is incubated for 0, 5, 15, 30 and 45 min. The control (minus NADPH) is incubated for 45 min only. The reactions are stopped by transferring incubate into acetonitrile at the appropriate time points, in a 1:3 ratio. The termination plates are centrifuged at 3,000 rpm for 20 min at 4° C. to precipitate the protein.
From a plot of ln peak area ratio (compound peak area/internal standard peak area) against time, the gradient of the line is determined. Subsequently, half-life and intrinsic clearance are calculated using the equations below: Elimination rate constant (k)=(−gradient) Half-life (t½)(min)=0.693/k Intrinsic clearance (CLint)(μL/min/mg protein)=V×0.693/t½ where V=Incubation volume (μL)/Microsomal protein (mg)
Relevant control compounds were assessed, ensuring intrinsic clearance values fall within the specified limits (if available).

[2] = tested on: participants diagnosed with at least moderate post-traumatic stress disorder (PTSD); test: Double-blind, randomized, placebo-controlled clinical trial of methylone-assisted psychotherapy in PTSD; type: in vivo, human; conditions: for CAPS-5 assessments compared to placebo-treated controls: Intervening Session 1C, 2C, 3C and Study Conclusion; for clinician-rated functional impairment score as measured by SDS / depression as measured by HAM-D: vs placebo-treated controls; for change in CAPS-5 assessment compared to the placebo group: 100-200 mg p.o. initial dose, 3 Experimental Sessions with psychotherapy
Description: A multicenter, randomized, double-blind, placebo-controlled trial is conducted to assess the efficacy and safety of methylone-assisted psychotherapy versus psychotherapy with placebo control in participants diagnosed with at least moderate post-traumatic stress disorder (PTSD).
This multicenter, randomized, double-blind, placebo-controlled trial is conducted at various sites in the United States with IRB approval from each study site. A flexible dose of methylone hydrochloride salt or placebo, followed by a supplemental half-dose unless contraindicated by patient's previous response or medical history, is also administered during the Treatment Period with psychotherapy in at least 3 blinded monthly Experimental Sessions. The Supplemental Dose extends the duration of drug effects on the participants during an Experimental Session. Methylone test groups are further subdivided into specific groups receiving only racemic methylone hydrochloride salt, S-methylone hydrochloride salt, or R-methylone hydrochloride salt. An optional Risk Evaluation and Mitigation Strategy (REMS) Protocol may be implemented for the racemic methylone, S-methylone, and placebo-groups. The Treatment Period lasts for approximately 12 weeks. During the Treatment Period, each Experimental Session is followed by three Intervening Sessions of non-drug psychotherapy. Each Experimental Session involves an overnight stay. The Primary Outcome measure, the change in Clinician Administered PTSD Scale for DSM-5 (CAPS-5), is determined by a blinded Independent Rater (IR) pool multiple times throughout the study. The study consists of separate periods for each participant. Initially, prospective participants undergo a Screening Period involving an initial eligibility assessment, a medical history intake, informed consent, and enrollment of eligible participants. Next, a Preparation Period is undertaken for enrolled participants involving medication tapering and clinical baseline assessments to confirm each participant meets enrollment criteria. As part of the Preparation Period, a detailed assessment of co-morbidities to PTSD is recorded. Participants may remain on prescribed courses of selective serotonin reuptake inhibitor (SSRI) or serotonin and norepinephrine reuptake inhibitor (SNRI) treatment. Dosages and/or frequency of administration of a prescribed SSRI or SNRI may be adjusted to fit within study parameters. Participants may be required to taper a prescribed course of medication in order to maintain eligibility within the study. The Treatment Period consists of three monthly Experimental Sessions and associated Intervening Sessions of integrative behavioral psychotherapy. The Treatment Period lasts approximately 12 weeks. Following the Treatment Period is a Follow-up Period and Study Conclusion. During the Follow-up Period and Study Conclusion, participants complete 4 weeks with no study visits, followed by a Study Conclusion visit.
This study compares the effects of three blinded Experimental Sessions of psychotherapy in combination with flexible doses of methylone or placebo administered as described below. Non-drug preparatory and intervening psychotherapy sessions are also included. Patient's weight is determined for dosage calculation. Initial dose is 100 mg unless this will result in a dosage of less than 1.5 mg/kg of patient weight. Initial dose thereby adjusted upward in 25 mg increments to deliver the lowest dose possible of at least 1.5 mg/kg of patient weight. Initial dose for Experimental Session 2 and 3 is cumulative dose calculated by adding the initial dose plus REMS protocol dose used the previous Experimental Session for each patient.
Randomization occurs prior to the initiation of Experimental Session 1. Each participant is provided the next randomized number in a sequence by a blinded study monitor. […]

Male Sprague-Dawley rats = test: Rat elevated zero-maze model of anxiety; type: in vivo; conditions: for decrease in SAPs compared with chlordiazepoxide / time spent in the open arms compared with chlordiazepoxide: 30 mg/kg ip vs chlordiazepoxide 6 mg/kg ip; for anxiolytic effects compared with chlordiazepoxide: high dose level; for time in the open arms: FIGS. 62-64
From the text: The rat zero-maze model is a refined alternative to the plus-maze, the most widely used animal model of anxiety, and consists of an elevated annular platform, divided equally into four quadrants. Two opposite quadrants are enclosed by Perspex walls on both the inner and the outer edges of the platform, while the remaining two opposite quadrants are open being enclosed only by a Perspex “lip”. Animals will show a preference for the closed areas, and avoidance of the open sections is assumed to stem from a rodent's natural aversion to open, exposed spaces. The primary index of anxiety, which reflect changes in open arm preference, is the percentage of time spent on the open areas. A reduction in the amount of activity on the open areas is considered to reflect an increase in anxiety. Other, ethologically-based behaviours are also assessed as indices of anxiety. One of the most important is stretched attend postures (SAP) from closed to open quadrants. […] Shepherd, J K; et al., (1994) Behavioural and pharmacological validation of the elevated “zero-maze” as an animal model of anxiety. Psychopharmacol., 116:56-64.
Male Sprague-Dawley 200-250 g (Envigo UK) rats were used. Animals were group-housed (5 per cage; cage size: 40×40×20 cm) in a temperature-controlled environment (22±2° C.), under a 12 h light-dark cycle (lights on: 08:00 hours) for one week prior to testing. Food and water were freely available. Number of animals per group=5. Animals were moved into the experimental room 16-24 hours before testing.
The elevated 0-maze comprises a black Perspex annular platform (105 cm diameter, 10 cm width) elevated to 65 cm above ground level, divided equally into four quadrants. Two opposite quadrants are enclosed by clear red Perspex walls (27 cm high) on both the inner and outer edges of the platform, while the remaining two opposite quadrants are surrounded only by a Perspex “lip” (1 cm high) which serves as a tactile guide to animals on these open areas.
Subjects were weighed and tail marked before being injected. After a specified pre-treatment time, subjects were placed in a closed quadrant and a 5-min test period were recorded on videotape for subsequent analysis. The maze were cleaned with 5% methanol/water solution and dried thoroughly between test sessions. Behavioural measures comprise percentage time spent on the open areas (% TO) and frequency of stretched attend postures (SAP) from closed to open quadrants. Since the control groups were all treated identically with the same vehicle these were combined to increase power. The Chlordiazepoxide groups were also treated identically with the same dose so these were also combined to increase power. Animals are scored as being in the open area when all four paws were in an open quadrant and in the closed area only when all four paws have passed over the open-closed divide. All testing were carried out between 9.00 and 16.00 hours.
For each study, a 1-way ANOVA was conducted across vehicle, CDP, and drug treatment groups. Each group was compared to the vehicle group and a p-value for treatment determined by Fishers Least Significant Difference (LSD) test. This analysis was performed in GraphPad Prism (Version 9). Formulations: […]
Intraperitoneal (IP): Racemic methylone HCl was formulated in Vehicle 1 (Saline) for injection to concentrations of 1, 3 and 6 mg/mL to provide doses of 5, 15 and 30 mg/kg when administered ip in 5 mL/kg dosing volumes.
Intraperitoneal (IP): S-methylone HCl was formulated in Vehicle 1 (Saline) for injection to concentrations of 0.5, 1, 1.5, 3 and 6 mg/mL to provide doses of 2.5, 5, 7.5, 15 and 30 mg/kg when administered ip in 5 mL/kg dosing volumes.
Intraperitoneal (IP): R-methylone HCl was formulated in Vehicle 1 (Saline) for injection to concentrations of 1, 3 and 6 mg/mL to provide doses of 5, 15 and 30 mg/kg when administered ip in 5 mL/kg dosing volumes. […]

[3] = specific doses, ip, 30 min pretest
[4] = specific doses, ip, 30 min pretest, vs chlordiazepoxide 6 mg/kg, FIGS. 65-67

| Compound | difference in half-life and intrinsic clearance compared with the corresponding non-deuterated methylone hydrochloride [1] | CAPS-5 assessments compared to placebo-treated controls [2] | daytime sleepiness as measured by ESS ([2]; Study Conclusion) | clinician-rated functional impairment score as measured by SDS ([2]; Study Conclusion) | depression as measured by HAM-D ([2]; Study Conclusion) | change in CAPS-5 assessment compared to the placebo group ([2]; Study Conclusion) | decrease in SAPs compared with chlordiazepoxide (Male Sprague-Dawley rats) | time spent in the open arms compared with chlordiazepoxide (Male Sprague-Dawley rats) | anxiolytic effects compared with chlordiazepoxide (Male Sprague-Dawley rats) | time in the open arms (Male Sprague-Dawley rats; [3]) | frequency of SAPs (Male Sprague-Dawley rats; [4]) | other results |
| --- | --- | --- | --- | --- | --- | --- | --- | --- | --- | --- | --- | --- |
| Cl.[2H]C1([2H])Oc2ccc(C(=O)C(C)NC)cc2O1 (racemic) [(rac)-Methylone-d2 hydrochloride, 1-(benzo[d][1,3]dioxol-5-yl-2,2-d2)-2-((methyl)amino)propan-1-one HCl] | differences in half-life and intrinsic clearance |  |  |  |  |  |  |  |  |  |  |  |
| Cl.[2H]C([2H])([2H])NC(C)C(=O)c1ccc2c(c1)OCO2 (racemic) [(rac)-Methylone-d3 hydrochloride, 1-(benzo[d][1,3]dioxol-5-yl)-2-((methyl-d3)amino)propan-1-one HCl] | differences in half-life and intrinsic clearance |  |  |  |  |  |  |  |  |  |  |  |
| Cl.[2H]C([2H])([2H])NC(C)C(=O)c1ccc2c(c1)OC([2H])([2H])O2 (racemic) [(rac)-Methylone-d5 hydrochloride, 1-(benzo[d][1,3]dioxol-5-yl-2,2-d2)-2-((methyl-d3)amino)propan-1-one HCl] | most significant difference in half-life and intrinsic clearance |  |  |  |  |  |  |  |  |  |  |  |
| CN[C@H](C)C(=O)c1ccc2c(c1)OCO2 [(R)-Methylone Hydrochloride, (R)-1-(benzo[d][1,3]dioxol-5-yl)-2-(methylamino)propan-1-one hydrochloride] |  | Significant improvements in CAPS-5 assessments | significant improvement in lessening daytime sleepiness | significant improvement in clinician-rated functional impairment score | significant improvement depression | significant mean reduction in CAPS-5 assessment | to the same level as chlordiazepoxide | as effective as chlordiazepoxide | anxiolytic effects as effective as chlordiazepoxide | increase time in the open arms | decreased the frequency of SAPs as effectively as the benzodiazepine chlordiazepoxide | adverse anxiogenic incidents ([2]; compared to placebo-treated controls): without a significant increase in adverse anxiogenic incidents; frequency of SAPs (Male Sprague-Dawley rats; 30 mg/kg ip): significantly decreasing SAPs; frequency of SAPs, trend with dose (Male Sprague-Dawley rats; 5, 15 and 30 mg/kg ip): dose dependent decrease in SAPs; time spent in the open arms, trend with dose (Male Sprague-Dawley rats; 5, 15 and 30 mg/kg ip): dose dependent increase in time spent in the open arms; anxiogenic effect (Male Sprague-Dawley rats; any dose (5, 15, 30 mg/kg ip)): did not show any anxiogenic effect at any dose; anxiogenic effects at lower doses (Male Sprague-Dawley rats; ip): not seen |
| CN[C@@H](C)C(=O)c1ccc2c(c1)OCO2 [(S)-Methylone Hydrochloride, (S)-1-(benzo[d][1,3]dioxol-5-yl)-2-(methylamino)propan-1-one hydrochloride] |  | Significant improvements in CAPS-5 assessments | significant improvement in lessening daytime sleepiness | significant improvement in clinician-rated functional impairment score | significant improvement depression | significant mean reduction in CAPS-5 assessment | even more effective than chlordiazepoxide at reducing SAPs | as effective as chlordiazepoxide at increasing time spent in the open arms | anxiolytic effects as effective as chlordiazepoxide | increase time in the open arms | decreased the frequency of SAPs as effectively as the benzodiazepine chlordiazepoxide | total dosage of drug needed for significant mean reduction in CAPS-5, compared to the racemic methylone-treated subgroup ([2]; Study Conclusion): lower total dosage of drug; frequency of SAPs, trend with dose (Male Sprague-Dawley rats; 2.5 mg/kg and 5 mg/kg ip): dose dependent increase in SAPs; time spent in the open arms, trend with dose (Male Sprague-Dawley rats; 5 mg/kg, 7.5 mg/kg and 15 mg/kg ip): time spent in the open arms decreased as the dose increased; frequency of SAPs, trend with dose (Male Sprague-Dawley rats; 7.5 mg/kg, 15 mg/kg and 30 mg/kg ip): dose dependent decrease in SAPS; overall effect on anxiety (Male Sprague-Dawley rats; 30 mg/kg ip): effective anxiolytic on all measures; time spent in the open arms (Male Sprague-Dawley rats; 30 mg/kg ip): time in the open arms increased; anxiogenic effects at lower doses (Male Sprague-Dawley rats; ip, hydrochloride): anxiogenic effects at lower doses |

Reference: patent US12234216B2, “Isotopologues salts, crystalline forms, stereoisomers, of methylone and ethylone and methods of use thereof” (Terran Biosciences Inc., priority 2021, dated 2025)
